Data set [1] in a line: Intrinsic clearance in human liver microsomes. It counts as ADME. To be noted: read-out: CLH. In general terms: Liver microsomes are vesicles of endoplasmic reticulum, rich in cytochrome P450 enzymes.
A short description of data set [2]: Octanol-neutral aqueous buffer partition coefficient, log D of the compound at pH 7.4. The format is physicochemical.
For another data set, the system named is Hepatitis C virus. Kind of data set: Antiviral activity against Hepatitis C virus infected in human HuH7 cells. To be noted: Hepacivirus hominis; Huh-7. It counts as functional, organism-based.
A short description of data set [3]: Clearance in rat at 1 mg/kg, iv. The format is ADME, organism-based. To be noted: in vivo. The arrangement: dose 1 mg/kg, route intravenous.
The nature of data set [4]: Volume of distribution at steady state in rat at 1 mg/kg, iv. The format is ADME, organism-based. The arrangement: dose 1 mg/kg, route intravenous. To be noted: in vivo, read-out: Vdss.
Data set [5] is described as follows: Terminal half life in rat at 1 mg/kg, iv. The arrangement: dose 1 mg/kg, route intravenous. To be noted: in vivo, read-out: beta t1/2 (converted). It counts as ADME, organism-based.
Data set [6] is described as follows: Oral bioavailability in rat at 2 mg/kg administered as solution. The format is ADME, organism-based. To be noted: in vivo.
Data set [7] is described as follows: Oral bioavailability in rat at 2 mg/kg administered as suspension. It counts as ADME, organism-based. To be noted: in vivo.
Data set [8] can be described thus: Oral bioavailability in rat at 2 mg/kg administered as nano suspension. To be noted: in vivo. It counts as ADME, organism-based.
Data set [9] can be described thus: Clearance in dog at 0.1 mg/kg, iv. It counts as ADME, organism-based, Canis lupus familiaris. Set-up: dose 0.1 mg/kg, route intravenous. To be noted: in vivo.
A short description of data set [10]: Volume of distribution at steady state in dog at 0.1 mg/kg, iv. The format is ADME, organism-based, Canis lupus familiaris. The arrangement: dose 0.1 mg/kg, route intravenous. To be noted: in vivo, read-out: Vdss.
Data set [11] is described as follows: Terminal half life in dog at 0.1 mg/kg, iv. It counts as ADME, organism-based, Canis lupus familiaris. The arrangement: dose 0.1 mg/kg, route intravenous. To be noted: in vivo, read-out: beta t1/2 (converted).
Data set [12] deals with T1, Adenosine receptor A1 (Homo sapiens) (UniProt P30542).
T1 sequence (whole entry): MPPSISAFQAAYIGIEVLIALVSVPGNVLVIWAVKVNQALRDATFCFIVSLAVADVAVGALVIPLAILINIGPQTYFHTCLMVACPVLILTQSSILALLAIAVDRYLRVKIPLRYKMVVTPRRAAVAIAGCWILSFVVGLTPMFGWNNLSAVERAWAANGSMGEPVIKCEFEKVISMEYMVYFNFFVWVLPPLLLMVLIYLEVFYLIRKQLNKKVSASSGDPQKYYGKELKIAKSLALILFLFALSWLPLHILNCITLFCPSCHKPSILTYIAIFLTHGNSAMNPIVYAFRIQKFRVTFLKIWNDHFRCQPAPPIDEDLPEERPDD
Kind of data set: Inhibition of adenosine A1 receptor (unknown origin) at 10 uM relative to control.

Data set [13] deals with Acetylcholinesterase (Homo sapiens) (UniProt P22303). Kind of data set: Inhibition of human acetylcholinesterase at 10 uM relative to control.
Data set [14] deals with Adenosine receptor A2a (Homo sapiens) (UniProt P29274). Kind of data set: Inhibition of adenosine A2A receptor (unknown origin) at 10 uM relative to control.
The subject of a further data set is Mus musculus. Kind of data set: Stimulation of IFN-alpha production in po dosed CD-1 mouse. The format is functional, organism-based.

The record followed here is ChEMBL document CHEMBL3217697, “The discovery of a novel prototype small molecule TLR7 agonist for the treatment of hepatitis C virus infection” (Medchemcomm, 2011).

SMILES strings stand for the structures. Active and inactive are the calls of the source. The calls are words filed in the database; no cut-off is given here.

Sequence of Acetylcholinesterase (Homo sapiens) (P22303 whole entry): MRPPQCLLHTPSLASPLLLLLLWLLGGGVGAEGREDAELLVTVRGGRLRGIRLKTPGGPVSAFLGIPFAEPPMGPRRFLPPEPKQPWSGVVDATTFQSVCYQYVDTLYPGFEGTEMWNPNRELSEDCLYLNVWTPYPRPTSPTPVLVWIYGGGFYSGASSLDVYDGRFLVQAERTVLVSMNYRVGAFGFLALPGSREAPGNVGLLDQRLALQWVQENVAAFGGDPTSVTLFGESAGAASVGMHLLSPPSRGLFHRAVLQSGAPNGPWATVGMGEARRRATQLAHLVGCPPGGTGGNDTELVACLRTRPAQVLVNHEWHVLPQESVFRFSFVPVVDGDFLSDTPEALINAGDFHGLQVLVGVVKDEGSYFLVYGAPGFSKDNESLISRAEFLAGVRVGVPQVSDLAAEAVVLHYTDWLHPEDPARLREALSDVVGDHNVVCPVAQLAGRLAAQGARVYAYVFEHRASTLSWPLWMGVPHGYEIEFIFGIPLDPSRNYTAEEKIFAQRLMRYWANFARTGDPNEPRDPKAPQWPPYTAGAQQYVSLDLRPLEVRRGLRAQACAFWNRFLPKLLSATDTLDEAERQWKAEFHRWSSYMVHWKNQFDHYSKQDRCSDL
Sequence of Adenosine receptor A2a (Homo sapiens) (P29274 whole entry): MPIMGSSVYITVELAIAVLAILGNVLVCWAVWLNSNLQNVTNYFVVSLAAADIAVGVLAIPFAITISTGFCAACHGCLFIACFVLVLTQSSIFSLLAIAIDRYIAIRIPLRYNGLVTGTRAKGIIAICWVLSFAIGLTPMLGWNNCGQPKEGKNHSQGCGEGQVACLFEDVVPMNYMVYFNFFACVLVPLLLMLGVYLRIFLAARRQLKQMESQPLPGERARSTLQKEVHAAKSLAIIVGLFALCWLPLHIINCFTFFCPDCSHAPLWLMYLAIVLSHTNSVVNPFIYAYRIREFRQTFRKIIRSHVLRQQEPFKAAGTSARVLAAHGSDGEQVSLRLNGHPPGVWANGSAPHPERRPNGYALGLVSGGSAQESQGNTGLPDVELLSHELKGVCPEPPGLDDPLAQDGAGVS

As for `Nc1cc(C2CC2)nc2c(Cc3ccccc3)c(=O)[nH]n12`, the microsomal CLint in data set [1] was under 7 µL/min/mg. In data set [2], this compound yielded a logD of 1.6. For the same compound, in the data set with Hepatitis C virus, the outcome was inactive.
Take `Cc1nc(N)c2[nH]c(=O)n(Cc3ccccc3)c2c1C`: the microsomal CLint in [1] was under 7 µL/min/mg. In [2], this compound displayed a logD of 2.6. Besides, the result with Hepatitis C virus was inactive.
Consider `Nc1nccc2c1[nH]c(=O)n2Cc1ccccc1`, for which the microsomal CLint in data set [1] is under 7 µL/min/mg. Besides, in data set [2], the logD was 1.9.
With `COCCNc1nc(N)c2c(O)nn(Cc3ccccc3)c2n1`, the result in the data set with Hepatitis C virus was inactive.
Regarding `O=c1[nH]c2cnc(C(F)(F)F)cc2n1Cc1ccccc1`, the microsomal CLint in [1] was under 7 µL/min/mg. Also, in [2], the logD worked out at 3.1.
`Cc1cc2c([nH]c(=O)n2Cc2ccccc2)c(N)n1`: the microsomal CLint in [1] was under 7 µL/min/mg. Besides, in data set [2], the logD is 2.3. Moreover, in the data set with Hepatitis C virus, the result was inactive.
`CCCc1cc2c([nH]c(=O)n2Cc2ccccc2)c(N)n1`: the microsomal CLint in data set [1] worked out at 14 µL/min/mg. The same compound displayed a logD in data set [2] of 3.1.
Take `Cc1nc(N)c2sc(=O)n(Cc3ccccc3)c2n1`: in the data set on Hepatitis C virus, the outcome was inactive.
In the case of `Cc1nc(N)c2nc(O)n(Cc3ccccc3)c2n1`, the microsomal CLint in data set [1] is under 7 µL/min/mg. Further, the outcome in the data set on Hepatitis C virus was inactive.
Turning to `Nc1nc(C(F)(F)F)cc2c1[nH]c(=O)n2Cc1ccccc1`, the microsomal CLint in data set [1] was under 7 µL/min/mg. The clearance in [3] was found to be 33 mL/min/kg; in [9], 6 mL/min/kg. Besides, the figures for the Vd in data set [4] and in [10] were 2.7 L/kg and 2.3 L/kg, respectively. Further, the half-life in data set [5] is 1 h; in data set [11], 5.5 h. Besides, the figures for the bioavailability in data set [6], in data set [7] and in [8] were 48%, 69% and 71%, respectively. The values for the inhibition in [12], in data set [13] and in data set [14] were 29%, 70% and 32%, respectively. This compound returned an EC50 with Mus musculus of 58 nM.
For `Cc1nc(N)c2c(n1)N(Cc1ccccc1)C(=O)C2`, in data set [1], the microsomal CLint was under 7 µL/min/mg. This compound also yielded a logD in [2] of 2. Besides, the result in the data set with Hepatitis C virus was inactive.
On to `Cc1nc(N)c2c(n1)N(Cc1ccccc1)C(=O)NC2`, for which, in data set [1], the microsomal CLint was determined as 16 µL/min/mg. The logD in data set [2] amounted to 1.6. Also, in the data set on Hepatitis C virus, the result was inactive.
In the same order, the values of `O=c1[nH]n2c(O)nc(C3CC3)cc2c1Cc1ccccc1` are under 7 µL/min/mg, 1.7 and “inactive”.
As for `CC(C)c1cc2c([nH]c(=O)n2Cc2ccccc2)c(N)n1`, the microsomal CLint in [1] is under 7 µL/min/mg. The same compound yielded a logD in [2] of 3.1.
With `Cc1cc(N)c2[nH]c(=O)n(Cc3ccccc3)c2n1`, in data set [1], the microsomal CLint was under 7 µL/min/mg. This compound also displayed a logD in data set [2] of 2.3. For the same compound, the outcome with Hepatitis C virus was inactive.

One may read the logD as the decadic logarithm of the distribution of all forms, ionised or not, between an organic phase and buffer at a given pH. Lower therefore signals lower lipophilicity. For orientation: clearance means the rate of elimination divided by the concentration. Read a high clearance as a high capacity for elimination. The term bioavailability denotes the share of a dose that reaches the circulation, judged against a reference dose that is usually intravenous. A higher bioavailability goes with good availability. By inhibition is commonly meant the drop in the measured response relative to a control, in per cent. The EC50 is the concentration that produces a half-maximal response.
